The source made the active and inactive calls.
Experiments:
HCT-15 = test: Growth inhibition of human HCT15 cells at 10 uM after 48 hrs by sulforhodamine B assay; type: functional
SF-295 = test: Growth inhibition of human SF295 cells at 10 uM after 48 hrs by sulforhodamine B assay; type: functional
NCI-H522 = test: Growth inhibition of human NCI-H522 cells at 10 uM after 48 hrs by sulforhodamine B assay; type: functional; settings: NCI-H522, 48 h, read-out: GI
RXF 393 = test: Growth inhibition of human RXF393 cells at 10 uM after 48 hrs by sulforhodamine B assay; type: functional
NCI-H460 = test: Growth inhibition of human NCI-H460 cells at 10 uM after 48 hrs by sulforhodamine B assay; type: functional
KM12 = test: Growth inhibition of human KM12 cells at 10 uM after 48 hrs by sulforhodamine B assay; type: functional
NCI-H226 = test: Growth inhibition of human NCI-H226 cells at 10 uM after 48 hrs by sulforhodamine B assay; type: functional
HL-60(TB) = test: Growth inhibition of human HL-60(TB) cells at 10 uM after 48 hrs by sulforhodamine B assay; type: functional; settings: HL-60, 48 h, read-out: GI
DU-145 = test: Growth inhibition of human DU145 cells at 10 uM after 48 hrs by sulforhodamine B assay; type: functional
HOP-92 = test: Growth inhibition of human HOP92 cells at 10 uM after 48 hrs by sulforhodamine B assay; type: functional
SN12C = test: Growth inhibition of human SN12C cells at 10 uM after 48 hrs by sulforhodamine B assay; type: functional
SF-539 = test: Growth inhibition of human SF539 cells at 10 uM after 48 hrs by sulforhodamine B assay; type: functional
SF-268 = test: Growth inhibition of human SF268 cells at 10 uM after 48 hrs by sulforhodamine B assay; type: functional
MDA-MB-231 = test: Growth inhibition of human MDA-MB-231 cells at 10 uM after 48 hrs by sulforhodamine B assay; type: functional
RPMI-8226 = test: Growth inhibition of human RPMI8226 cells at 10 uM after 48 hrs by sulforhodamine B assay; type: functional; settings: RPMI-8226, 48 h, read-out: GI
SNB-75 = test: Growth inhibition of human SNB75 cells at 10 uM after 48 hrs by sulforhodamine B assay; type: functional; settings: SNB-75, 48 h, read-out: GI
MDA-MB-468 = test: Growth inhibition of human MDA-MB-468 cells at 10 uM after 48 hrs by sulforhodamine B assay; type: functional
SK-MEL-28 = test: Growth inhibition of human SK-MEL-28 cells at 10 uM after 48 hrs by sulforhodamine B assay; type: functional, cell-based
U-251 = test: Growth inhibition of human U251 cells at 10 uM after 48 hrs by sulforhodamine B assay; type: functional; settings: U-251, 48 h, read-out: GI
NCI/ADR-RES = test: Growth inhibition of human NCI-ADR-RES cells at 10 uM after 48 hrs by sulforhodamine B assay; type: functional
NCI-H23 = test: Growth inhibition of human NCI-H23 cells at 10 uM after 48 hrs by sulforhodamine B assay; type: functional
CAKI-1 = test: Growth inhibition of human CAKI-1 cells at 10 uM after 48 hrs by sulforhodamine B assay; type: functional
HCT-116 = test: Growth inhibition of human HCT116 cells at 10 uM after 48 hrs by sulforhodamine B assay; type: functional
LOX IMVI = test: Growth inhibition of human LOXIMVI cells at 10 uM after 48 hrs by sulforhodamine B assay; type: functional
CCRF-CEM = test: Growth inhibition of human CCRF-CEM cells at 10 uM after 48 hrs by sulforhodamine B assay; type: functional; settings: read-out: GI
M14 = test: Growth inhibition of human M14 cells at 10 uM after 48 hrs by sulforhodamine B assay; type: functional
MOLT-4 = test: Growth inhibition of human MOLT4 cells at 10 uM after 48 hrs by sulforhodamine B assay; type: functional; settings: MOLT-4, 48 h, read-out: GI
ACHN = test: Growth inhibition of human ACHN cells at 10 uM after 48 hrs by sulforhodamine B assay; type: functional
SK-MEL-5 = test: Growth inhibition of human SK-MEL-5 cells at 10 uM after 48 hrs by sulforhodamine B assay; type: functional
SK-MEL-2 = test: Growth inhibition of human SK-MEL-2 cells at 10 uM after 48 hrs by sulforhodamine B assay; type: functional
COLO 205 = test: Growth inhibition of human COLO205 cells at 10 uM after 48 hrs by sulforhodamine B assay; type: functional
SR = test: Growth inhibition of human SR cells at 10 uM after 48 hrs by sulforhodamine B assay; type: functional; settings: read-out: GI
OVCAR-5 = test: Growth inhibition of human OVCAR5 cells at 10 uM after 48 hrs by sulforhodamine B assay; type: functional
OVCAR-8 = test: Growth inhibition of human OVCAR8 cells at 10 uM after 48 hrs by sulforhodamine B assay; type: functional
A549 = test: Growth inhibition of human A549/ATCC cells at 10 uM after 48 hrs by sulforhodamine B assay; type: functional
MDA-MB-435 = test: Growth inhibition of human MDA-MB-435 cells at 10 uM after 48 hrs by sulforhodamine B assay; type: functional
Carbonic anhydrase 9 = Carbonic anhydrase 9 (Homo sapiens, UniProt Q16790); test: Inhibition of human carbonic anhydrase 9 after 15 mins by stopped flow CO2 hydration assay
SK-OV-3 = test: Growth inhibition of human SKOV3 cells at 10 uM after 48 hrs by sulforhodamine B assay; type: functional
TK-10 = test: Growth inhibition of human TK10 cells at 10 uM after 48 hrs by sulforhodamine B assay; type: functional
HOP-62 = test: Growth inhibition of human HOP62 cells at 10 uM after 48 hrs by sulforhodamine B assay; type: functional
UACC-257 = test: Growth inhibition of human UACC257 cells at 10 uM after 48 hrs by sulforhodamine B assay; type: functional; settings: UACC-257, 48 h, read-out: GI
[1] = (§1) Growth inhibition of human HCC2998 cells at 10 uM after 48 hrs by sulforhodamine B assay; type: functional; settings: HCC 2998, 48 h, read-out: GI
SNB-19 = test: Growth inhibition of human SNB19 cells at 10 uM after 48 hrs by sulforhodamine B assay; type: functional
Hs-578T = test: Growth inhibition of human Hs 578T cells at 10 uM after 48 hrs by sulforhodamine B assay; type: functional
SW-620 = test: Growth inhibition of human SW620 cells at 10 uM after 48 hrs by sulforhodamine B assay; type: functional
MCF7 = test: Growth inhibition of human MCF7 cells at 10 uM after 48 hrs by sulforhodamine B assay; type: functional
EKVX = test: (§2) Growth inhibition of human EKVX cells at 10 uM after 48 hrs by sulforhodamine B assay; type: functional
786-0 = test: Growth inhibition of human 786-0 cells at 10 uM after 48 hrs by sulforhodamine B assay; type: functional
UACC-62 = test: Growth inhibition of human UACC62 cells at 10 uM after 48 hrs by sulforhodamine B assay; type: functional
HT-29 = test: Growth inhibition of human HT-29 cells at 10 uM after 48 hrs by sulforhodamine B assay; type: functional
OVCAR-3 = test: Growth inhibition of human OVCAR3 cells at 10 uM after 48 hrs by sulforhodamine B assay; type: functional
BT-549 = test: Growth inhibition of human BT549 cells at 10 uM after 48 hrs by sulforhodamine B assay; type: functional
T47D = test: Growth inhibition of human T47D cells at 10 uM after 48 hrs by sulforhodamine B assay; type: functional
A498 = test: Growth inhibition of human A498 cells at 10 uM after 48 hrs by sulforhodamine B assay; type: functional
NCI-H322M = test: Growth inhibition of human NCI-H322M cells at 10 uM after 48 hrs by sulforhodamine B assay; type: functional
OVCAR-4 = test: Growth inhibition of human OVCAR4 cells at 10 uM after 48 hrs by sulforhodamine B assay; type: functional
IGROV-1 = test: Growth inhibition of human IGROV1 cells at 10 uM after 48 hrs by sulforhodamine B assay; type: functional
UO-31 = test: Growth inhibition of human UO31 cells at 10 uM after 48 hrs by sulforhodamine B assay; type: functional; settings: UO-31, 48 h, read-out: GI
PC-3 = test: Growth inhibition of human PC3 cells at 10 uM after 48 hrs by sulforhodamine B assay; type: functional
Malme-3M = test: Growth inhibition of human MALME-3M cells at 10 uM after 48 hrs by sulforhodamine B assay; type: functional; settings: read-out: GI
HCC 2998 = test: as §1; type: functional
[2] = as §2; type: functional; settings: read-out: GI
K562 = test: Growth inhibition of human K562 cells at 10 uM after 48 hrs by sulforhodamine B assay; type: functional

CSc1nc(N)n(-c2ccncc2S(N)(=O)=O)n1
8%: inhibition of growth at 10 µM (CCRF-CEM)
7%: inhibition of growth at 10 µM (SNB-75) | inhibition of growth at 10 µM (UACC-257)
10%: inhibition of growth at 10 µM (SR) | inhibition of growth at 10 µM [1]
20%: inhibition of growth at 10 µM (HOP-92; HOP-92, 48 h, read-out: GI)
4%: inhibition of growth at 10 µM (UACC-62; UACC-62, 48 h, read-out: GI)
2%: inhibition of growth at 10 µM (RPMI-8226)
inactive: growth inhibition (GI) (HCT-15) | growth inhibition (GI) (SF-295) | growth inhibition (GI) (RXF 393) | growth inhibition (GI) (NCI-H460) | growth inhibition (GI) (KM12) | growth inhibition (GI) (NCI-H226) | growth inhibition (GI) (DU-145) | growth inhibition (GI) (SN12C) | growth inhibition (GI) (SF-539) | growth inhibition (GI) (SF-268) | growth inhibition (GI) (MDA-MB-468) | growth inhibition (GI) (SK-MEL-28) | growth inhibition (GI) (NCI/ADR-RES) | growth inhibition (GI) (NCI-H23) | growth inhibition (GI) (CAKI-1) | growth inhibition (GI) (HCT-116) | growth inhibition (GI) (LOX IMVI) | growth inhibition (GI) (M14) | growth inhibition (GI) (ACHN) | growth inhibition (GI) (SK-MEL-5) | growth inhibition (GI) (SK-MEL-2) | growth inhibition (GI) (COLO 205) | growth inhibition (GI) (OVCAR-5) | growth inhibition (GI) (OVCAR-8) | growth inhibition (GI) (A549) | growth inhibition (GI) (MDA-MB-435) | growth inhibition (GI) (SK-OV-3) | growth inhibition (GI) (TK-10) | growth inhibition (GI) (HOP-62) | growth inhibition (GI) (SNB-19) | growth inhibition (GI) (Hs-578T) | growth inhibition (GI) (SW-620) | growth inhibition (GI) (MCF7) | growth inhibition (GI) (EKVX) | growth inhibition (GI) (786-0) | growth inhibition (GI) (HT-29) | growth inhibition (GI) (OVCAR-3) | growth inhibition (GI) (BT-549) | growth inhibition (GI) (T47D)
65.4 nM: Ki (Carbonic anhydrase 9)
6%: inhibition of growth at 10 µM (U-251)
1%: inhibition of growth at 10 µM (NCI-H522) | inhibition of growth at 10 µM (MDA-MB-231; MDA-MB-231, 48 h, read-out: GI) | inhibition of growth at 10 µM (MOLT-4)
3%: inhibition of growth at 10 µM (HL-60(TB))

NS(=O)(=O)c1cnccc1N1CCN(c2ccccc2)CC1
14%: inhibition of growth at 10 µM (UO-31)
3%: inhibition of growth at 10 µM (SF-539; SF-539, 48 h, read-out: GI)
8%: inhibition of growth at 10 µM (CAKI-1; CAKI-1, 48 h, read-out: GI) | inhibition of growth at 10 µM (SR) | inhibition of growth at 10 µM (Malme-3M)
5%: inhibition of growth at 10 µM (MOLT-4)
10%: inhibition of growth at 10 µM (RPMI-8226)
1%: inhibition of growth at 10 µM (NCI-H522) | inhibition of growth at 10 µM (SNB-75) | inhibition of growth at 10 µM (HCT-116; HCT-116, 48 h, read-out: GI) | inhibition of growth at 10 µM (T47D; read-out: GI)
124 nM: Ki (Carbonic anhydrase 9)
7%: inhibition of growth at 10 µM (CCRF-CEM)
inactive: growth inhibition (GI) (A498) | growth inhibition (GI) (HCT-15) | growth inhibition (GI) (RXF 393) | growth inhibition (GI) (NCI-H460) | growth inhibition (GI) (KM12) | growth inhibition (GI) (NCI-H226) | growth inhibition (GI) (DU-145) | growth inhibition (GI) (HOP-92) | growth inhibition (GI) (NCI-H322M) | growth inhibition (GI) (SN12C) | growth inhibition (GI) (SF-268) | growth inhibition (GI) (MDA-MB-231) | growth inhibition (GI) (OVCAR-4) | growth inhibition (GI) (MDA-MB-468) | growth inhibition (GI) (SK-MEL-28) | growth inhibition (GI) (NCI/ADR-RES) | growth inhibition (GI) (NCI-H23) | growth inhibition (GI) (IGROV-1) | growth inhibition (GI) (LOX IMVI) | growth inhibition (GI) (M14) | growth inhibition (GI) (PC-3) | growth inhibition (GI) (ACHN) | growth inhibition (GI) (SK-MEL-5) | growth inhibition (GI) (SK-MEL-2) | growth inhibition (GI) (COLO 205) | growth inhibition (GI) (OVCAR-5) | growth inhibition (GI) (MDA-MB-435) | growth inhibition (GI) (SK-OV-3) | growth inhibition (GI) (TK-10) | growth inhibition (GI) (HOP-62) | growth inhibition (GI) (HCC 2998) | growth inhibition (GI) (SNB-19) | growth inhibition (GI) (Hs-578T) | growth inhibition (GI) (SW-620) | growth inhibition (GI) (MCF7) | growth inhibition (GI) (786-0) | growth inhibition (GI) (UACC-62) | growth inhibition (GI) (K562) | growth inhibition (GI) (HT-29) | growth inhibition (GI) (OVCAR-3)
2%: inhibition of growth at 10 µM (HL-60(TB))
4%: inhibition of growth at 10 µM (SF-295; SF-295, 48 h, read-out: GI) | inhibition of growth at 10 µM [2] | inhibition of growth at 10 µM (BT-549; BT-549, 48 h, read-out: GI)

— ChEMBL document CHEMBL2434896, “Carbonic anhydrase inhibitors. Synthesis of heterocyclic 4-substituted pyridine-3-sulfonamide derivatives and their inhibition of the human cytosolic isozymes I and II and transmembrane tumor-associated isozymes IX and XII” (Eur J Med Chem, 2013)
